# Laboratory results: PMC6277767, “Broad and Region-Specific Impacts of the Synthetic Cannabinoid CP 55,940 in Adolescent and Adult Female Mouse Brains” (Frontiers in Molecular Neuroscience, 2018)
# System: CD1 female mouse brain lipidome
# Assay: Brain-region lipid levels (HPLC/MS/MS lipidomics) 2 h after single i.p. 3 mg/kg CP 55,940 vs vehicle
# Format: in vivo
# Design: N-arachidonoyl phenylalanine level, Mean / N-stearoyl tryptophan level, Mean / N-stearoyl proline level, Mean / N-stearoyl leucine level, Mean / N-stearoyl phenylalanine level, Mean / N-stearoyl serine level, Mean / N-stearoyl methionine level, Mean: unit: moles per gram
# Conditions: hippocampus
# Description: The Bloomington Institutional Animal Care and Use Committee of Indiana University reviewed and approved the animal procedures. Female mice from the CD1 strain were utilized to match our study examining THC’s effects on the brain lipidome ([Leishman et al., 2018]). Mice were given a single i.p. injection of either 3 mg/kg CP or 1:1:18 cremophor:ethanol:saline vehicle (please refer to the section “3 mg/kg CP Is Relevant for Synthetic Cannabinoid Abuse and Has Stronger Effects on the Female Mouse Brain Lipidome During Adolescence” for a justification of dose and use of female mice). Three different age groups were given injections: PND 35 and PND 50 adolescents, and adult mice (PND 113). At least eight mice in each age group received CP and at least eight received vehicle. Matching the THC study time course ([Leishman et al., 2018]), mice were sacrificed via rapid decapitation 2 h after injection. Brains were immediately removed and flash-frozen in liquid nitrogen, and then stored at -80°C until dissections were performed. Brains were dissected on an ice-cold dissection plate into the following regions: STR, HIPP, CER, THAL, CTX, HYP, MID, and STEM. These abbreviations for these brain areas will be used exclusively when discussing the results generated by these specific dissections. Each dissected area was immediately placed in liquid nitrogen and then stored at -80°C until used for lipid extraction.
# Tissue extracts were performed as previously described ([Bradshaw et al., 2006]; [Stuart et al., 2013]; [Raboune et al., 2014]; [Leishman et al., 2016a],[b], [2017], [2018]). First, samples were shock frozen in liquid nitrogen, weighed, and transferred to a centrifuge tube. The mass of the largest sample was multiplied by 50 to determine how many milliliters of HPLC-grade methanol (Fisher, Fair Lawn, NJ, United States) to add. Then, samples were spiked with 500 pmol deuterium-labeled NAGly (d8NAGly; Cayman Chemical, Ann Arbor, MI, United States). Samples were placed on ice in darkness for 2 h then individually homogenized and centrifuged at 19,000 × g for 20 min at 20°C. Supernatants were diluted with HPLC water (purified in house) to make a solution of 75% water, 25% supernatant. Lipids were partially purified on C18 solid phase extraction columns (Agilent, Palo Alto, CA, United States). A series of four elutions with 1.5 mL of 60%, 75%, 85%, and 100% methanol were collected ([Stuart et al., 2013]; [Leishman et al., 2016a],[b], [2018]).
# As previously described ([Bradshaw et al., 2006]; [Tan et al., 2006]; [Smoum et al., 2010]; [Stuart et al., 2013]; [Tortoriello et al., 2013]; [Raboune et al., 2014]; [Leishman et al., 2016a],[b], [2017], [2018]), samples were analyzed using an Applied Biosystems API 3000 triple quadrupole mass spectrometer with electrospray ionization (Foster City, CA, United States). Using an Agilent XDB-C18 reversed phase analytical column and optimized mobile phase gradients, 20 μL from each elution were chromatographed. Two Shimadzu 10ADvp pumps (Columbia, MD, United States) provided the pressure for gradient elution. Mobile phase A: 20% methanol, 80% water (v/v) and 1 mM ammonium acetate (Sigma, St. Louis, MO, United States). Mobile phase B: 100% methanol, 1 mM ammonium acetate. Every method run began with 0% mobile phase B, reached 100% mobile phase B flowing at 0.2 mL/min, and gradually returned to 0% mobile phase B.
# This screening library will be referred to as the lipidome when discussing data from this study. HPLC/MS/MS data were analyzed using Analyst software (Applied Biosystems) ([Bradshaw et al., 2006]; [Tan et al., 2006]; [Stuart et al., 2013]; [Tortoriello et al., 2013]; [Raboune et al., 2014]; [Leishman et al., 2016a],[b], [2017], [2018]). Chromatograms (Supplementary Figure 3) were generated by determining the retention time of analytes from the analytical column with a [M-1] or [M+1] parent peak and a fragmentation peak corresponding to the programmed values. […]
# [1] = PND 35, 3 mg/kg CP 55,940 vs vehicle
# [2] = PND 35 WT female mice, 3mg/kg CP 55,940
smiles,measurement,setting,value
"CCCCCCC(C)(C)c1ccc([C@@H]2C[C@H](O)CC[C@H]2CCCO)c(O)c1 [CP 55,940]","THC level, Mean","adult, 3 mg/kg CP 55,940",BDL
same,phosphoLEA: Direction (relative to Veh),"adult, 3 mg/kg CP 55,940",↑
same,phosphoLEA: Magnitude (x Veh level),"adult, 3 mg/kg CP 55,940",1.45 x Veh level
same,2-arachidonoyl glycerol: Direction,[1],↓
same,2-arachidonoyl glycerol: Magnitude,[1],0.79
same,2-linoleoyl glycerol: Direction,[1],↓
same,2-linoleoyl glycerol: Magnitude,[1],0.63
same,2-oleoyl glycerol: Direction,[1],↓
same,2-oleoyl glycerol: Magnitude,[1],0.82
same,6-ketoPGF1α: Direction,[1],↑
same,6-ketoPGF1α: Magnitude,[1],1.32
same,Arachidonic acid: Direction,[1],↓
same,Arachidonic acid: Magnitude,[1],0.84
same,Linoleic acid: Direction,[1],↓
same,Linoleic acid: Magnitude,[1],0.77
same,N-arachidonoyl GABA: Direction,[1],↓
same,N-arachidonoyl GABA: Magnitude,[1],0.66
same,N-arachidonoyl alanine: Direction,[1],↓
same,N-arachidonoyl alanine: Magnitude,[1],0.76
same,N-arachidonoyl ethanolamine: Direction,[1],↓
same,N-arachidonoyl ethanolamine: Magnitude,[1],0.82
same,N-arachidonoyl glycine: Direction,[1],↓
same,N-arachidonoyl glycine: Magnitude,[1],0.86
same,N-arachidonoyl phenylalanine: Direction,[1],↓
same,N-arachidonoyl phenylalanine: Magnitude,[1],0.76
same,N-arachidonoyl serine: Direction,[1],↓
same,N-arachidonoyl serine: Magnitude,[1],0.49
same,N-arachidonoyl taurine: Direction,[1],↓
same,N-arachidonoyl taurine: Magnitude,[1],0.81
same,N-docosahexaenoyl GABA: Direction,[1],↓
same,N-docosahexaenoyl GABA: Magnitude,[1],0.52
same,N-docosahexaenoyl alanine: Direction,[1],↓
same,N-docosahexaenoyl alanine: Magnitude,[1],0.76
same,N-docosahexaenoyl ethanolamine: Direction,[1],↓
same,N-docosahexaenoyl ethanolamine: Magnitude,[1],0.71
same,N-docosahexaenoyl glycine: Direction,[1],↓
same,N-docosahexaenoyl glycine: Magnitude,[1],0.83
same,N-docosahexaenoyl leucine: Direction,[1],↑
same,N-docosahexaenoyl leucine: Magnitude,[1],1.41
same,N-docosahexaenoyl serine: Direction,[1],↓
same,N-docosahexaenoyl serine: Magnitude,[1],0.74
same,N-linoleoyl GABA: Direction,[1],↓
same,N-linoleoyl GABA: Magnitude,[1],0.55
same,N-linoleoyl alanine: Direction,[1],↓
same,N-linoleoyl alanine: Magnitude,[1],0.82
same,N-oleoyl GABA: Direction,[1],↓
same,N-oleoyl GABA: Magnitude,[1],0.59
same,N-oleoyl alanine: Direction,[1],↓
same,N-oleoyl alanine: Magnitude,[1],0.75
same,N-oleoyl ethanolamine: Direction,[1],↓
same,N-oleoyl ethanolamine: Magnitude,[1],0.77
same,N-oleoyl glycine: Direction,[1],↓
same,N-oleoyl glycine: Magnitude,[1],0.87
same,N-oleoyl methionine: Direction,[1],↓
same,N-oleoyl methionine: Magnitude,[1],0.68
same,N-oleoyl valine: Direction,[1],↑
same,N-oleoyl valine: Magnitude,[1],1.27
same,N-palmitoyl alanine: Direction,[1],↓
same,N-palmitoyl alanine: Magnitude,[1],0.85
same,N-palmitoyl ethanolamine: Direction,[1],↓
same,N-palmitoyl ethanolamine: Magnitude,[1],0.79
same,N-palmitoyl leucine: Direction,[1],↑
same,N-palmitoyl leucine: Magnitude,[1],1.31
same,N-palmitoyl phenylalanine: Direction,[1],↑
same,N-palmitoyl phenylalanine: Magnitude,[1],1.26
same,N-palmitoyl tyrosine: Direction,[1],↑
same,N-palmitoyl tyrosine: Magnitude,[1],1.29
same,N-palmitoyl valine: Direction,[1],↑
same,N-palmitoyl valine: Magnitude,[1],1.24
same,N-stearoyl GABA: Direction,[1],↓
same,N-stearoyl GABA: Magnitude,[1],0.77
same,N-stearoyl alanine: Direction,[1],↓
same,N-stearoyl alanine: Magnitude,[1],0.79
same,N-stearoyl glycine: Direction,[1],↓
same,N-stearoyl glycine: Magnitude,[1],0.87
same,N-stearoyl valine: Direction,[1],↑
same,N-stearoyl valine: Magnitude,[1],1.39
same,Oleic acid: Direction,[1],↓
same,Oleic acid: Magnitude,[1],0.82
same,PGF2α: Direction,[1],↑
same,PGF2α: Magnitude,[1],1.28
same,"2-arachidonoyl glycerol level, Mean",[2],2.47E-10
same,"2-linoleoyl glycerol level, Mean",[2],1.2E-10
same,"2-oleoyl glycerol level, Mean",[2],9.43E-10
same,"2-palmitoyl glycerol level, Mean",[2],7.71E-10
same,"6-ketoPGF1α level, Mean",[2],1.92E-11
same,"11-OH-THC level, Mean",[2],BDL
same,"11-nor-9-carboxyTHC level, Mean",[2],BDL
same,"Arachidonic acid level, Mean",[2],4.25E-09
same,"Cannabidiol level, Mean",[2],BDL
same,"Linoleic acid level, Mean",[2],9.72E-10
same,"N- stearoyl valine level, Mean",[2],8.48E-13
same,"N-arachidonoyl GABA level, Mean",[2],2.17E-11
same,"N-arachidonoyl alanine level, Mean",[2],1.79E-11
same,"N-arachidonoyl dopamine level, Mean",[2],BDL
same,"N-arachidonoyl ethanolamine level, Mean",[2],4.75E-11
same,"N-arachidonoyl glycine level, Mean",[2],6.69E-11
same,"N-arachidonoyl methionine level, Mean",[2],PISSR
same,"N-arachidonoyl phenylalanine level, Mean",[2],1.21E-12
same,"N-arachidonoyl proline level, Mean",[2],BDL
same,"N-arachidonoyl serine level, Mean",[2],8.58E-12
same,"N-arachidonoyl taurine level, Mean",[2],2.18E-10
